ChEMBL document CHEMBL1208720, “N-Benzylsalicylthioamides as novel compounds with promising antimycotic activity” (2010)
≈ marks a conversion by molar mass, not a printed value.

Tests used:
Format in all cases: functional
Candida albicans [1] = experiment: Antifungal activity against Candida albicans ATCC 44859 after 48 hrs by broth microdilution assay; details: Candida albicans, ATCC 44859, 48 h
Lichtheimia corymbifera [2] = experiment: Antifungal activity against Absidia corymbifera 272 after 48 hrs by broth microdilution assay; details: Lichtheimia corymbifera, 272, 48 h
Candida tropicalis [3] = experiment: Antifungal activity against Candida tropicalis 159 after 24 hrs by broth microdilution assay; details: Candida tropicalis, 159, 24 h
[4] = system: Trichophyton mentagrophytes; experiment: Antifungal activity against Trichophyton mentagrophytes 445 after 72 hrs by broth microdilution assay; details: Trichophyton mentagrophytes, 445, 72 h
Nakaseomyces glabratus [5] = experiment: Antifungal activity against Candida glabrata 20/I after 48 hrs by broth microdilution assay; details: Nakaseomyces glabratus, 20/I, 48 h
Trichosporon asahii [6] = experiment: Antifungal activity against Trichosporon asahii 1188 after 24 hrs by broth microdilution assay; details: Trichosporon asahii, 1188, 24 h
Lichtheimia corymbifera [7] = experiment: Antifungal activity against Absidia corymbifera 272 after 24 hrs by broth microdilution assay; details: Lichtheimia corymbifera, 272, 24 h
Nakaseomyces glabratus [8] = experiment: Antifungal activity against Candida glabrata 20/I after 24 hrs by broth microdilution assay; details: Nakaseomyces glabratus, 20/I, 24 h
Pichia kudriavzevii [9] = experiment: Antifungal activity against Candida krusei E28 after 24 hrs by broth microdilution assay; details: Pichia kudriavzevii, E28, 24 h
Pichia kudriavzevii [10] = experiment: Antifungal activity against Candida krusei E28 after 48 hrs by broth microdilution assay; details: Pichia kudriavzevii, E28, 48 h
Aspergillus fumigatus [11] = experiment: Antifungal activity against Aspergillus fumigatus 231 after 48 hrs by broth microdilution assay; details: Aspergillus fumigatus, 231, 48 h
Candida tropicalis [12] = experiment: Antifungal activity against Candida tropicalis 159 after 48 hrs by broth microdilution assay; details: Candida tropicalis, 159, 48 h
Aspergillus fumigatus [13] = experiment: Antifungal activity against Aspergillus fumigatus 231 after 24 hrs by broth microdilution assay; details: Aspergillus fumigatus, 231, 24 h
[14] = system: Trichophyton mentagrophytes; experiment: Antifungal activity against Trichophyton mentagrophytes 445 after 120 hrs by broth microdilution assay; details: Trichophyton mentagrophytes, 445, 120 h
Candida albicans [15] = experiment: Antifungal activity against Candida albicans ATCC 44859 after 24 hrs by broth microdilution assay; details: Candida albicans, ATCC 44859, 24 h
Trichosporon asahii [16] = experiment: Antifungal activity against Trichosporon asahii 1188 after 48 hrs by broth microdilution assay; details: Trichosporon asahii, 1188, 48 h

| Compound | MIC (Candida albicans [1]) | MIC (Lichtheimia corymbifera [2]) | MIC (Candida tropicalis [3]) | MIC [4] | MIC (Nakaseomyces glabratus [5]) | MIC (Trichosporon asahii [6]) | MIC (Lichtheimia corymbifera [7]) | MIC (Nakaseomyces glabratus [8]) | MIC (Pichia kudriavzevii [9]) | MIC (Pichia kudriavzevii [10]) | MIC (Aspergillus fumigatus [11]) | MIC (Candida tropicalis [12]) | MIC (Aspergillus fumigatus [13]) | MIC [14] | MIC (Candida albicans [15]) | MIC (Trichosporon asahii [16]) |
| --- | --- | --- | --- | --- | --- | --- | --- | --- | --- | --- | --- | --- | --- | --- | --- | --- |
| COc1ccc(C(=S)NCc2cccc(Cl)c2)c(O)c1 | 250 µM (≈ 77 µg/mL) | 7.81 µM (≈ 2.4 µg/mL) | 125 µM (≈ 38.5 µg/mL) | 15.6 µM (≈ 4.81 µg/mL) | 500 µM (≈ 154 µg/mL) | 31.2 µM (≈ 9.62 µg/mL) | 7.81 µM (≈ 2.4 µg/mL) | 250 µM (≈ 77 µg/mL) | 125 µM (≈ 38.5 µg/mL) | 125 µM (≈ 38.5 µg/mL) | 125 µM (≈ 38.5 µg/mL) | 250 µM (≈ 77 µg/mL) | 62.5 µM (≈ 19.2 µg/mL) | 15.6 µM (≈ 4.81 µg/mL) | 125 µM (≈ 38.5 µg/mL) | 62.5 µM (≈ 19.2 µg/mL) |
| Cc1ccc(CNC(=S)c2cc([N+](=O)[O-])ccc2O)cc1 | > 500 µM | 500 µM (≈ 151 µg/mL) | > 500 µM | 62.5 µM (≈ 18.9 µg/mL) | > 500 µM | 500 µM (≈ 151 µg/mL) | 500 µM (≈ 151 µg/mL) | > 500 µM | > 500 µM | > 500 µM | 500 µM (≈ 151 µg/mL) | > 500 µM | 500 µM (≈ 151 µg/mL) | 62.5 µM (≈ 18.9 µg/mL) | 500 µM (≈ 151 µg/mL) | 500 µM (≈ 151 µg/mL) |
| Cc1cccc(C(=S)NCc2ccc(Cl)cc2)c1O | 125 µM (≈ 36.5 µg/mL) | 31.2 µM (≈ 9.12 µg/mL) | 125 µM (≈ 36.5 µg/mL) | 15.6 µM (≈ 4.56 µg/mL) | > 500 µM | 62.5 µM (≈ 18.2 µg/mL) | 31.2 µM (≈ 9.12 µg/mL) | > 500 µM | > 500 µM | > 500 µM | 125 µM (≈ 36.5 µg/mL) | 250 µM (≈ 73 µg/mL) | 62.5 µM (≈ 18.2 µg/mL) | 15.6 µM (≈ 4.56 µg/mL) | 62.5 µM (≈ 18.2 µg/mL) | 62.5 µM (≈ 18.2 µg/mL) |
| Oc1ccccc1C(=S)NCc1cccc(Cl)c1 | 125 µM (≈ 34.7 µg/mL) | 31.2 µM (≈ 8.68 µg/mL) | 125 µM (≈ 34.7 µg/mL) | 7.81 µM (≈ 2.17 µg/mL) | 250 µM (≈ 69.4 µg/mL) | 31.2 µM (≈ 8.68 µg/mL) | 31.2 µM (≈ 8.68 µg/mL) | 125 µM (≈ 34.7 µg/mL) | 62.5 µM (≈ 17.4 µg/mL) | 125 µM (≈ 34.7 µg/mL) | 62.5 µM (≈ 17.4 µg/mL) | 125 µM (≈ 34.7 µg/mL) | 62.5 µM (≈ 17.4 µg/mL) | 15.6 µM (≈ 4.34 µg/mL) | 125 µM (≈ 34.7 µg/mL) | 31.2 µM (≈ 8.68 µg/mL) |
| Cc1ccc(C(=S)NCc2ccc(Cl)cc2)c(O)c1 | > 500 µM | > 500 µM | > 500 µM | > 500 µM | > 500 µM | > 500 µM | > 500 µM | > 500 µM | > 500 µM | > 500 µM | > 500 µM | > 500 µM | > 500 µM | > 500 µM | > 500 µM | > 500 µM |
| Cc1ccc(C(=S)NCc2ccc(C(C)(C)C)cc2)c(O)c1 | > 500 µM | > 500 µM | > 500 µM | > 500 µM | > 500 µM | > 500 µM | > 500 µM | > 500 µM | > 500 µM | > 500 µM | > 500 µM | > 500 µM | > 500 µM | > 500 µM | > 500 µM | > 500 µM |
| OC(Cn1cncn1)(Cn1cncn1)c1ccc(F)cc1F [FLUCONAZOLE] | 2 µM (≈ 0.613 µg/mL) | > 50 µM | 3 µM (≈ 0.919 µg/mL) | 17 µM (≈ 5.21 µg/mL) | > 50 µM | 4 µM (≈ 1.23 µg/mL) | > 50 µM | 22 µM (≈ 6.74 µg/mL) | > 50 µM | > 50 µM | > 50 µM | 5 µM (≈ 1.53 µg/mL) | > 50 µM | 26 µM (≈ 7.96 µg/mL) | 1 µM (≈ 0.306 µg/mL) | 9 µM (≈ 2.76 µg/mL) |
